Measurements published in patent publication US6054429A (priority 1996, dated 2000).

Test system: formalin flinch response in rats
Details: rat, in vivo

SMILES | effect on Phase 1 response (in words) | effect on Phase 2 response (in words)
COc1ccc([C@@H]2Sc3ccccc3N(CCN(C)C)C(=O)[C@@H]2OC(C)=O)cc1 [diltiazem] | without effect | without effect
COC(=O)C1=C(C)NC(C)=C(C(=O)OC)C1c1ccccc1[N+](=O)[O-] [nifedipine] | without effect | without effect
COCCOC(=O)C1=C(C)NC(C)=C(C(=O)OC(C)C)C1c1cccc([N+](=O)[O-])c1 (centres unmarked) [nimodipine] | without effect | without effect
COc1ccc(CCN(C)CCCC(C#N)(c2ccc(OC)c(OC)c2)C(C)C)cc1OC (centres unmarked) [verapamil] | without effect | without effect
